#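 Exposure lasted 48 hours, with cells grown in 96-well plates and compounds tested at five concentrations. The concentration for 50% growth inhibition is given as GI50. TGI: total growth inhibition.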
# What was measured:
# Assay in all cases: NCI tumour cell line growth inhibition, 48 h
# [1] = tested on: A549 NSCLC
# [2] = tested on: OVCAR-8 ovarian
# [3] = tested on: T-47D breast
# [4] = tested on: MCF7 breast
# [5] = tested on: SF-268 CNS
# [6] = tested on: 786-0 renal
# [7] = tested on: LOX IMVI melanoma
# [8] = tested on: IGROV1 ovarian
# [9] = tested on: MOLT-4 leukemia
# [10] = tested on: HOP-62 NSCLC
# [11] = tested on: NCI-H522 lung
# [12] = tested on: UO-31 renal
# [13] = tested on: HL-60(TB) leukemia
# [14] = tested on: SNB-19 CNS
# [15] = tested on: SK-MEL-2 melanoma
# [16] = tested on: OVCAR-5 ovarian
# [17] = tested on: COLO 205 colon
# [18] = tested on: HS 578T breast
# [19] = tested on: MDA-MB-435
# [20] = tested on: SK-MEL-28 melanoma
# [21] = tested on: NCI-H23 lung
# [22] = tested on: HCT-116 colon
# [23] = tested on: NCI-H460 lung
# [24] = tested on: UACC-257 melanoma
# [25] = tested on: RPMI-8226 leukemia
# [26] = tested on: MDA-MB-468 breast
# [27] = tested on: NCI/ADR-RES ovarian
# [28] = tested on: RXF 393 renal
# [29] = tested on: KM12 colon
# [30] = tested on: BT-549 breast
# [31] = tested on: UACC-62 melanoma
# [32] = tested on: CAKI-1 renal
# [33] = tested on: PC-3 prostate
# [34] = tested on: SN12C renal
# [35] = tested on: CCRF-CEM leukemia
# [36] = tested on: HCT-15 colon
# [37] = tested on: HOP-92 NSCLC
# [38] = tested on: SF-295 CNS
# [39] = tested on: DU-145 prostate
# [40] = tested on: SK-MEL-5 melanoma
# [41] = tested on: ACHN renal
# [42] = tested on: K-562 leukemia
# [43] = tested on: A498 renal
# [44] = tested on: EKVX NSCLC
# [45] = tested on: TK-10 renal
# [46] = tested on: SW-620 colon
# [47] = tested on: SR leukemia
# [48] = tested on: NCI-H226 lung
# [49] = tested on: SF-539 CNS
# [50] = tested on: MDA-MB-231 breast
# [51] = tested on: U251 CNS
# [52] = tested on: SK-OV-3 ovarian
# [53] = tested on: M14 melanoma
# [54] = tested on: HCC-2998 colon
# [55] = tested on: OVCAR-3 ovarian
# [56] = tested on: MALME-3M melanoma
# [57] = tested on: OVCAR-4 ovarian
# [58] = tested on: HT29 colon
# [59] = tested on: SNB-75 CNS
smiles,measurement,setting,value
COc1ccc(C(=O)/C=C/c2cccc(Cl)c2)cc1S(N)(=O)=O,GI50,[1],2500 nM
same,TGI,[1],10200 nM
same,GI50,[2],2810 nM
same,TGI,[2],11700 nM
same,GI50,[3],2140 nM
same,TGI,[3],6680 nM
same,GI50,[4],1970 nM
same,TGI,[4],6990 nM
same,GI50,[5],3270 nM
same,TGI,[5],13000 nM
same,GI50,[6],1570 nM
same,TGI,[6],3490 nM
same,GI50,[7],1300 nM
same,TGI,[7],2570 nM
same,GI50,[8],2480 nM
same,TGI,[8],9060 nM
same,GI50,[9],2380 nM
same,TGI,[9],6150 nM
same,GI50,[10],2200 nM
same,TGI,[10],6430 nM
same,GI50,[11],1630 nM
same,TGI,[11],3220 nM
same,GI50,[12],1290 nM
same,TGI,[12],2730 nM
same,GI50,[13],1900 nM
same,TGI,[13],5720 nM
same,GI50,[14],3130 nM
same,TGI,[14],12400 nM
same,GI50,[15],12900 nM
same,TGI,[15],26200 nM
same,GI50,[16],1870 nM
same,TGI,[16],4760 nM
same,GI50,[17],1810 nM
same,TGI,[17],3410 nM
same,GI50,[18],10700 nM
same,TGI,[18],50900 nM
same,GI50,[19],3200 nM
same,TGI,[19],12100 nM
same,GI50,[20],2780 nM
same,TGI,[20],9400 nM
same,GI50,[21],1780 nM
same,TGI,[21],3500 nM
same,GI50,[22],1210 nM
same,TGI,[22],2520 nM
same,GI50,[23],3340 nM
same,TGI,[23],11200 nM
same,GI50,[24],5530 nM
same,TGI,[24],18900 nM
same,GI50,[25],2280 nM
same,TGI,[25],6670 nM
same,GI50,[26],1410 nM
same,TGI,[26],2930 nM
same,GI50,[27],2290 nM
same,TGI,[27],6480 nM
same,GI50,[28],1550 nM
same,TGI,[28],3080 nM
same,GI50,[29],1610 nM
same,TGI,[29],3750 nM
same,GI50,[30],1650 nM
same,TGI,[30],4180 nM
same,GI50,[31],1980 nM
same,TGI,[31],5510 nM
same,GI50,[32],2400 nM
same,TGI,[32],9070 nM
same,GI50,[33],2230 nM
same,TGI,[33],6180 nM
same,GI50,[34],1560 nM
same,TGI,[34],3640 nM
same,GI50,[35],3110 nM
same,TGI,[35],8690 nM
same,GI50,[36],1140 nM
same,TGI,[36],2590 nM
same,GI50,[37],2280 nM
same,TGI,[37],18600 nM
same,GI50,[38],2240 nM
same,TGI,[38],7940 nM
same,GI50,[39],3520 nM
same,TGI,[39],12200 nM
same,GI50,[40],3180 nM
same,TGI,[40],12600 nM
same,GI50,[41],1750 nM
same,TGI,[41],3230 nM
same,GI50,[42],2130 nM
same,TGI,[42],> 100000 nM
same,GI50,[43],16300 nM
same,TGI,[43],30500 nM
same,GI50,[44],4160 nM
same,TGI,[44],16700 nM
same,GI50,[45],2490 nM
same,TGI,[45],10500 nM
same,GI50,[46],1680 nM
same,TGI,[46],3530 nM
same,GI50,[47],848 nM
same,TGI,[47],4900 nM
same,GI50,[48],2830 nM
same,TGI,[48],11900 nM
same,GI50,[49],1750 nM
same,TGI,[49],3780 nM
same,GI50,[50],2260 nM
same,TGI,[50],5900 nM
same,GI50,[51],1360 nM
same,TGI,[51],2690 nM
same,GI50,[52],6240 nM
same,TGI,[52],19100 nM
same,GI50,[53],2130 nM
same,TGI,[53],6930 nM
same,GI50,[54],1600 nM
same,TGI,[54],3060 nM
same,GI50,[55],1550 nM
same,TGI,[55],3390 nM
same,GI50,[56],3560 nM
same,TGI,[56],15100 nM
same,GI50,[57],3580 nM
same,TGI,[57],14300 nM
same,GI50,[58],1700 nM
same,TGI,[58],3400 nM
Cn1cc(-c2cc3nc(-c4c[nH]c5ccc(Cl)cc45)cc(N)n3n2)c2ccccc21,GI50,[3],1840 nM
same,TGI,[3],4140 nM
same,GI50,[6],1450 nM
same,TGI,[6],2830 nM
same,GI50,[8],1570 nM
same,TGI,[8],3130 nM
same,GI50,[9],1620 nM
same,TGI,[9],4180 nM
same,GI50,[11],1600 nM
same,TGI,[11],3230 nM
same,GI50,[12],1430 nM
same,TGI,[12],2730 nM
same,GI50,[13],2020 nM
same,TGI,[13],4750 nM
same,GI50,[14],1680 nM
same,TGI,[14],3150 nM
same,GI50,[15],1810 nM
same,TGI,[15],3540 nM
same,GI50,[16],1570 nM
same,TGI,[16],3040 nM
same,GI50,[17],1800 nM
same,TGI,[17],3350 nM
same,GI50,[18],1910 nM
same,TGI,[18],4800 nM
same,GI50,[19],1720 nM
same,TGI,[19],3150 nM
same,GI50,[20],1560 nM
same,TGI,[20],2900 nM
same,GI50,[22],1620 nM
same,TGI,[22],2980 nM
same,GI50,[24],1690 nM
same,TGI,[24],3230 nM
same,GI50,[25],2620 nM
same,TGI,[25],7210 nM
same,GI50,[27],2110 nM
same,TGI,[27],4730 nM
same,GI50,[31],1630 nM
same,TGI,[31],3060 nM
same,GI50,[32],1450 nM
same,TGI,[32],2910 nM
same,GI50,[33],1640 nM
same,TGI,[33],3140 nM
same,GI50,[34],1710 nM
same,TGI,[34],3170 nM
same,GI50,[35],3120 nM
same,TGI,[35],11200 nM
same,GI50,[36],1470 nM
same,TGI,[36],2910 nM
same,GI50,[39],1840 nM
same,TGI,[39],3320 nM
same,GI50,[40],1670 nM
same,TGI,[40],3100 nM
same,GI50,[41],1540 nM
same,TGI,[41],2870 nM
same,GI50,[42],2580 nM
same,TGI,[42],8070 nM
same,GI50,[43],1600 nM
same,TGI,[43],3370 nM
same,GI50,[45],1260 nM
same,TGI,[45],2580 nM
same,GI50,[47],1660 nM
same,TGI,[47],5100 nM
same,GI50,[48],1890 nM
same,TGI,[48],5170 nM
same,GI50,[49],1640 nM
same,TGI,[49],3060 nM
same,GI50,[50],1790 nM
same,TGI,[50],3230 nM
same,GI50,[51],1700 nM
same,TGI,[51],3290 nM
same,GI50,[52],1910 nM
same,TGI,[52],3880 nM
same,GI50,[53],1680 nM
same,TGI,[53],3140 nM
same,GI50,[59],1500 nM
same,TGI,[59],3240 nM
same,GI50,[55],2080 nM
same,TGI,[55],4390 nM
same,GI50,[56],1610 nM
same,TGI,[56],2970 nM
same,GI50,[57],1910 nM
same,TGI,[57],4150 nM
same,GI50,[58],1560 nM
same,TGI,[58],2980 nM
